The values below come from patent US5196512A (priority 1989, dated 1993).

In one test the test system is T cell clones. The format is cell-based, human.
Test [1] concerns Peripheral blood mononucleate cells (PBMC). In kind it is cell-based, human.
In test [2] the test system is T cell clones specific for TT3. In kind it is cell-based, human.
Test [3] deals with T cell clones specific for TT3. The format is cell-based, human. The source holds these as a separate data set.
Test [4] concerns C57BL/6, CBA and DBA/2 mice. Particulars: mouse, in vivo.
The next test has as its system lymph node cells. The format is cell-based, mouse.
In test [5] the test system is CBA, DBA/2 and C57BL/6 mice. Conditions: CBA and DBA/2 mice; n between 3 and 40; cited from earlier work.

Ends that are not written are not given here.

As to FNNFTVSFWLRVPK [TT200], the “recognition of the epitope by restricted T cell clones” value in the test on T cell clones was “recognised by all other DR and DP allele restricted clones”.

Turning to FNNFTVSFWLRVPKVSASHLE [TT3], in test [1], the “in vitro response of PBMC of different HLA-typized individuals immunized with the tetanus toxin” value is “responded in vitro” and the “share of all the T cells specific for the tetanus toxoid (TT)” value is at most 5%. Besides, in test [2], the “proliferation of all the isolated clones in response to antigen presented by autologous APC cells” value was “proliferated”. Further, the “Independent restriction (class II MHC alleles able to present the peptide to at least one T cell clone)” value in test [3] was “DR5 and DR9 and DR7 and DP2 and DP4 and DP? and DR5JVM/DP4”. Besides, in test [4], the “anti-TT3 antibody count after boosting” value is given as “increased” and the “anti-TT3 antibody count with IFA compared with CFA” value is listed as “same values”. In addition, the “proliferative T cell response of lymph node cells” value in the test on lymph node cells is “good proliferative T cell response”.

Regarding “H-(Asn-Ala-Asn-Pro)n -OH (H-NANP-OH; also: repeated n times) [(NANP)n]”, the anti-CSP antibody response entry in test [5] is “not able to induce”.

On to tetanus toxoid [reference compound], for which the “proliferation of all the isolated clones in response to antigen presented by autologous APC cells” value in test [2] is on record as “proliferated”.
